Results on 2 compounds are retold here after PMC3171192 (Journal of medicinal chemistry, 2011).

The subject of one series is Jurkat cells. Briefly: CellTiter-Glo cell viability assay, Jurkat cells. For orientation: Cellular ATP, detected with luciferase, serves as a proxy for viable cell number.
The subject of the next series is Caco-2 cells. Briefly: CellTiter-Glo cell viability assay, Caco-2 cells.
Series [1] concerns the target T1, CD2–CD58 interaction (adhesion between T cells (Jurkat, CD2) and Caco-2 cells (CD58)) (Homo sapiens, UniProt P19256).
T1 sequence (P19256 29-250): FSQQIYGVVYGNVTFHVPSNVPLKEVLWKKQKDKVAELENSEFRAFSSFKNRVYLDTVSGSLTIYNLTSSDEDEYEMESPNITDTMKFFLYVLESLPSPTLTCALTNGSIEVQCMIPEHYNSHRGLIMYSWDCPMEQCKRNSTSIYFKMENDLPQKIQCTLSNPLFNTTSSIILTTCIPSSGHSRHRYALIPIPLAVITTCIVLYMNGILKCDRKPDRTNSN
Briefly: Lymphocyte-epithelial adhesion assay. In kind it is cell-based. As to conditions: concentration range 0.0005 to 150 µM.

*1 amine or outer side, *2 acyl side, *3 side chain or, on linkers, in order; H or OH if unused. Where a SMILES comes first, the peptide text is derived from it. [ ]: non-standard residue; d: D form. X1 = O=C(CCc1cccc2c1oc1c(CCN[*:1])cccc12)[*:2]

With `CC[C@H](C)[C@@H]1NC(=O)[C@H](Cc2ccc(O)cc2)NC(=O)[C@H](CC(=O)O)NC(=O)CCc2cccc3c2Oc2c(cccc2-3)CCNC(=O)[C@H](CC(=O)O)NC(=O)[C@H](CC(=O)O)NC(=O)[C@H](CCCCN)NC1=O` [Peptide 7] (cyclo(DD[X1]DYIK)), the “toxicity effects on T cells” value in the series on Jurkat cells is listed as “did not show any toxicity effects”. For the same compound, in the series with Caco-2 cells, the “toxicity effects on Caco-2 cells” value is “did not show any toxicity effects”.

With KGKTDAISVKAI-NH2 [control peptide], the “cell adhesion inhibition in the lymphocyte epithelial assay” value in series [1] is reported as approximately 18%.
